Data on one compound can be found in patent publication US12653190B2, “Heteroaryl-triazole compounds as pesticides” (Bayer Aktiengesellschaft, priority 2020, dated 2026).

What all share (assay type): in vivo
The test system of assay [1] is green peach aphid (Myzus persicae). In words: Myzus persicae spray test. The following applies: foliar, 120 h, after 5 days, Chinese cabbage leaf disks. In short, it runs like this:
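Chinese cabbage leaf disks infested with all aphid instars were sprayed with compound in acetone/DMF, diluted in water with 1000 ppm alkylarylpolyglycol ether emulsifier. Mortality (%) scored after 5 days, 100% meaning all aphids killed.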

For assay [2], the system named is Rhipicephalus (Boophilus) microplus larvae (strain Parkhurst, resistant against synthetic pyrethroids). In words: Rhipicephalus (Boophilus) microplus in-vitro contact test, larval cattle tick. The following applies: 5 μg/cm^2 (=500 g/ha), after 48 hours, read-out: efficacy (larvae dead or moribund). In outline: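 Acetone solutions coated onto glass tube walls, 900 ppm giving 5 μg/cm^2; 20–50 larvae per tube after solvent evaporation. Incubated 48 h at 27 °C, 85% relative humidity; efficacy from negative geotaxis, 100% meaning all larvae dead or moribund.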

Assay [3] relates to adult engorged female ticks (Rhipicephalus microplus). In words: Rhipicephalus (Boophilus) microplus injection test. Particulars: 168 h, egg deposition monitored after 7 days, read-out: efficacy (infertile eggs). In outline: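 Five adult engorged female ticks each injected with 1 μL of DMSO compound solution into the abdomen, then kept in a climate chamber. Fertile egg deposition assessed after 7 days, with hatching followed to about 42 days; efficacy 100% means all eggs infertile, 0% all fertile.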

The test system of assay [4] is adult mosquitoes Aedes aegypti strain MONHEIM. In words: Aedes aegypti test (AEDSAE surface treatment & contact assay). Particulars: 24 hours after contact, read-out: efficacy (mortality). In outline:
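Compound in acetone (2 mg/ml) with 2000 ppm rapeseed oil methyl ester applied to glazed tile and dried; adult Aedes aegypti MONHEIM exposed on surface for 30 min. Percent mortality scored 24 h after contact.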

Broadly, the mortality is the share of the test organisms that died. `C[C@H](NC(=O)c1cc(Cl)cc(OS(C)(=O)=O)c1)c1ncnn1-c1ccc(C#N)cn1` [Example I-46] yielded a mortality at 100 g/ha in assay [1] of 100%. The pest or weed control at 5 µg/cm2, 5 µg/cm2 in assay [2] stood at 100%. Besides, the pest or weed control at 4 µg/tick in assay [3] (4 μg/tick injected) came out at 100%. Also, the pest or weed control at 20 µg/tick in assay [3] (20 μg/tick injected) turned out to be 100%. Moreover, the mortality at 4 mg/m2 in assay [4] (surface concentration 4 mg/m^2, 30 minutes exposure) fell in the range of 80 to 100%. Moreover, the mortality at 20 mg/m2 in assay [4] (surface concentration 20 mg/m^2, 30 minutes exposure) was 80 to 100%.
